Patent US8822698B2, “Aminoacid derivatives, their process of preparation and their therapeutical uses as inhibitors of oncogenic signals by the Met family” (Universite D'Aix-Marseille, priority 2009, dated 2014)

Assays:
Test in all cases: NCI 60 human tumour cell line screen
Format in all cases: cell-based
NCl•H226 = details: conc. 10^−5M; NCl•H226, Non-Small Cell Lung Cancer
From the text: (§1) Compound of example 4 was screened in the NCI 60 human tumour cell line anticancer drug screen (Shoemaker et al Nature reviews 6, 2006, 813-823).

A498 = details: conc. 10^−5M; A498, Renal Cancer
From the text: as §1

NCl-H460 = details: conc. 10^−5M; NCl-H460, Non-Small Cell Lung Cancer
From the text: as §1

HCT-116 = details: conc. 10^−5M; HCT-116, Colon Cancer
From the text: as §1

SR = details: conc. 10^−5M, Leukemia
From the text: as §1

PC-3 = details: conc. 10^−5M; PC-3, Prostate Cancer
From the text: as §1

RXF 393 = details: conc. 10^−5M; RXF 393, Renal Cancer
From the text: as §1

CAK I-1 = details: conc. 10^−5M; CAK I-1, Renal Cancer
From the text: as §1

HT29 = details: conc. 10^−5M; HT29, Colon Cancer
From the text: as §1

IGROV 1 = details: conc. 10^−5M; IGROV 1, Ovarian Cancer
From the text: as §1

TK-10 = details: conc. 10^−5M; TK-10, Renal Cancer
From the text: as §1

UACC-257 = details: conc. 10^−5M; UACC-257, Melanoma
From the text: as §1

NCl-H23 = details: conc. 10^−5M; NCl-H23, Non-Small Cell Lung Cancer
From the text: as §1

A549/ATCC = details: conc. 10^−5M, Non-Small Cell Lung Cancer
From the text: as §1

SK-MEL-5 = details: conc. 10^−5M; SK-MEL-5, Melanoma
From the text: as §1

U251 = details: conc. 10^−5M; U251, CNS Cancer
From the text: as §1

SW-620 = details: conc. 10^−5M; SW-620, Colon Cancer
From the text: as §1

MDA-MB-435 = details: conc. 10^−5M; MDA-MB-435, Melanoma
From the text: as §1

OVCAR-8 = details: conc. 10^−5M; OVCAR-8, Ovarian Cancer
From the text: as §1

M14 = details: conc. 10^−5M; M14, Melanoma
From the text: as §1

SF-268 = details: conc. 10^−5M; SF-268, CNS Cancer
From the text: as §1

HOP-62 = details: conc. 10^−5M; HOP-62, Non-Small Cell Lung Cancer
From the text: as §1

SF-295 = details: conc. 10^−5M; SF-295, CNS Cancer
From the text: as §1

EKVX = details: conc. 10^−5M, Non-Small Cell Lung Cancer
From the text: as §1

SK-MEL-2 = details: conc. 10^−5M; SK-MEL-2, Melanoma
From the text: as §1

UACC-62 = details: conc. 10^−5M; UACC-62, Melanoma
From the text: as §1

SK-MEL-28 = details: conc. 10^−5M; SK-MEL-28, Melanoma
From the text: as §1

OVCAR-3 = details: conc. 10^−5M; OVCAR-3, Ovarian Cancer
From the text: as §1

DU-145 = details: conc. 10^−5M; DU-145, Prostate Cancer
From the text: as §1

MCF7 = details: conc. 10^−5M; MCF7, Breast Cancer
From the text: as §1

T-47D = details: conc. 10^−5M, Breast Cancer
From the text: as §1

LOX IMVI = details: conc. 10^−5M, Melanoma
From the text: as §1

UO-31 = details: conc. 10^−5M; UO-31, Renal Cancer
From the text: as §1

MDA-MB-468 = details: conc. 10^−5M; MDA-MB-468, Breast Cancer
From the text: as §1

SN12C = details: conc. 10^−5M, Renal Cancer
From the text: as §1

MOLT-4 = details: conc. 10^−5M; MOLT-4, Leukemia
From the text: as §1

HCT-15 = details: conc. 10^−5M; HCT-15, Colon Cancer
From the text: as §1

HOP-92 = details: conc. 10^−5M; HOP-92, Non-Small Cell Lung Cancer
From the text: as §1

RPMI -8226 = details: conc. 10^−5M; RPMI -8226, Leukemia
From the text: as §1

786-0 = details: conc. 10^−5M; 786-0, Renal Cancer
From the text: as §1

O=C(Cc1cc(C(F)(F)F)cc(C(F)(F)F)c1)N[C@@H](Cc1ccccc1)C(=O)Nc1ccc(-c2cn3c(n2)sc2ccccc23)cc1 [Example 4, (S)-2-(3,5-bis(trifluoromethyl)phenylacetamido)-3-phenyl-N-[4-(imidazo[2,1-b]benzothiazol-2-yl)phenyl]propanamide]
Growth Percent (NCl•H226): 90.93% | Growth Percent (A498): 120.10% | Growth Percent (NCl-H460): −16.59% | Growth Percent (HCT-116): 21.40% | Growth Percent (SR): 58.33% | Growth Percent (PC-3): 38.29% | Growth Percent (RXF 393): 47.02% | Growth Percent (CAK I-1): 53.37% | Growth Percent (HT29): 18.28% | Growth Percent (IGROV 1): 13.32% | Growth Percent (TK-10): 61.11% | Growth Percent (UACC-257): 55.20% | Growth Percent (NCl-H23): 39.55% | Growth Percent (A549/ATCC): 31.71% | Growth Percent (SK-MEL-5): 10.83% | Growth Percent (U251): 34.24% | Growth Percent (SW-620): 12.13% | Growth Percent (MDA-MB-435): 54.92% | Growth Percent (OVCAR-8): 3.54% | Growth Percent (M14): 30.58% | Growth Percent (SF-268): 29.28% | Growth Percent (HOP-62): 80.02% | Growth Percent (SF-295): 42.18% | Growth Percent (EKVX): 15.48% | Growth Percent (SK-MEL-2): 45.85% | Growth Percent (UACC-62): 69.45% | Growth Percent (SK-MEL-28): 26.28% | Growth Percent (OVCAR-3): 2.50% | Growth Percent (DU-145): 70.37% | Growth Percent (MCF7): 59.09% | Growth Percent (T-47D): 67.66% | Growth Percent (LOX IMVI): 26.60% | Growth Percent (UO-31): 67.05% | Growth Percent (MDA-MB-468): 78.09% | Growth Percent (SN12C): 47.40% | Growth Percent (MOLT-4): 43.46% | Growth Percent (HCT-15): 44.16% | Growth Percent (HOP-92): 71.89% | Growth Percent (RPMI -8226): 66.73% | Growth Percent (786-0): 60.35%
